Assay results from the supplement of paper PMC13380429.
Where a name gives a salt, the structure may show the parent alone. ± gives the standard deviation of the averaged measurements.

Assays:
[1] = system: A549-ACE2 infected with SARS-CoV-2; assay: cell count relative to DMSO; higher = less toxic; details: 24 h
HepG2 [2] = assay: relative viability EC50 (midpoint between 100% and the lowest measured viability); higher = less toxic; details: 72 h
Caco-2 [3] = assay: as above; details: 72 h
Calu-3 [4] = assay: as above; details: 72 h
HepG2 [5] = assay: drug sensitivity score (DSS) for viability; higher = more toxic; extreme values may be limits of the assay; details: 72 h
Caco-2 [6] = assay: as above; details: 72 h
Vero E6 [7] = assay: as above; details: 72 h
U2OS [8] = assay: as above; details: 72 h
Calu-3 [9] = assay: as above; details: 72 h
[10] = system: A549-ACE2 infected with SARS-CoV-2; assay: SARS-CoV-2 infection rate relative to DMSO; higher = more infection; details: 24 h
A549-ACE2 = assay: drug-induced phospholipidosis relative to tamoxifen; higher = more phospholipidosis
[11] = system: A549-ACE2 infected with SARS-CoV-2; assay: morphology score (similarity to uninfected cells); higher = more like uninfected cells; details: 24 h
HepG2 [12] = assay: cell viability relative to DMSO; higher = less toxic; details: 72 h
Caco-2 [13] = assay: as above; details: 72 h
Vero E6 [14] = assay: as above; details: 72 h
U2OS [15] = assay: as above; details: 72 h
Calu-3 [16] = assay: as above; details: 72 h
Vero E6 [17] = assay: relative viability EC50 (midpoint between 100% and the lowest measured viability); higher = less toxic; details: 72 h
U2OS [18] = assay: as above; details: 72 h

S=C(S)N1CCCC1 [pyrrolidine-dithiocarbamate]
Details | SARS-CoV-2 infection rate, [10] [%] | cell count, [1] [%] | cell viability, Caco-2 [13] [%] | cell viability, Calu-3 [16] [%] | cell viability, HepG2 [12] [%] | cell viability, U2OS [15] [%] | cell viability, Vero E6 [14] [%] | morphology score, [11]
1 nM | – | – | 101 | 93.7 | 95.5 | 101 | 102 | –
10 nM | – | – | 101 | 94.2 | 93.4 | 99.3 | 106 | –
0.1 µM | 108 | 101 | – | – | – | – | – | -0.05
100 nM | – | – | 90.2 | 102 | 96 | 102 | 101 | –
0.3 µM | 93 | 105 | – | – | – | – | – | 0.28
1 µM | 85 | 103 | – | – | – | – | – | 0.32
1000 nM | – | – | 30.4 | 99.8 | 106 | 95.4 | 103 | –
3 µM | 83 | 104 | – | – | – | – | – | 0.39
10000 nM | – | – | 15.7 | 41.7 | 13.1 | 58.4 | 63 | –

Details | drug sensitivity score | relative viability EC50 [µM]
Caco-2 [3] | – | 0.368
Caco-2 [6] | 14.2 | –
Calu-3 [4] | – | 3.14
Calu-3 [9] | 3.2 | –
HepG2 [2] | – | 3.53
HepG2 [5] | 4.4 | –
U2OS [8] | 2.8 | –
Vero E6 [7] | 1.6 | –

drug-induced phospholipidosis [%], A549-ACE2
Details | 0.3 µM | 0.833333 µM | 6.66667 µM | 10 µM | 30 µM
24 h | 1.65 | -0.57 | 5.92 | 3.64 | -1.59
48 h | 1.79 | 0.61 | – | – | –
72 h | 3.8 | 0.446 | – | – | –

COc1cc(N2CCN(C)CC2)ccc1Nc1nccc(-c2cn(C)c3cnccc23)n1 [AZ191]
Details | SARS-CoV-2 infection rate, [10] [%] | cell count, [1] [%] | cell viability, Caco-2 [13] [%] | cell viability, Calu-3 [16] [%] | cell viability, HepG2 [12] [%] | cell viability, U2OS [15] [%] | cell viability, Vero E6 [14] [%] | morphology score, [11]
1 nM | – | – | 96.7 | 96.4 | 97.3 | 97.9 | 93.6 | –
10 nM | – | – | 94.4 | 93.6 | 93.8 | 104 | 101 | –
0.1 µM | 95 | 106 | – | – | – | – | – | 0.14
100 nM | – | – | 96.6 | 93.3 | 98.4 | 99.6 | 98.5 | –
0.3 µM | 103 | 102 | – | – | – | – | – | 0.19
1 µM | 95 | 116 | – | – | – | – | – | 0.38
1000 nM | – | – | 98.5 | 101 | 87.1 | 103 | 95 | –
3 µM | 53 | 120 | – | – | – | – | – | 0.74
10000 nM | – | – | 64.4 | 102 | 22.3 | 64.5 | 62.6 | –

Details | drug sensitivity score | relative viability EC50 [µM]
Caco-2 [6] | 1.9 | –
Calu-3 [4] | – | > 10
Calu-3 [9] | 0 | –
HepG2 [2] | – | 1.9
HepG2 [5] | 6.4 | –
U2OS [8] | 1.5 | –
Vero E6 [7] | 2.6 | –

drug-induced phospholipidosis [%], A549-ACE2
Details | 0.3 µM | 0.833333 µM | 3.33333 µM | 6.66667 µM | 10 µM
24 h | 1.95 | -3.91 | 0.16 | 32.4 | 35.2
48 h | -0.41 | -2.25 | -2.09 | 41.3 | –
72 h | 3.05 | -1.34 | -1.23 | – | –

Cn1nc(C(C)(C)C)cc1C(=O)N[C@@H](Cc1cccc(Cl)c1)C(=O)NCC#N [Cathepsin Inhibitor 1]
Details | SARS-CoV-2 infection rate, [10] [%] | cell count, [1] [%] | morphology score, [11]
0.3 µM | 56 | 117 | 0.72
3 µM | 33 | 125 | 0.85
10 µM | 20 | 121 | 0.91
30 µM | 17 | 121 | 0.91

drug-induced phospholipidosis [%], A549-ACE2
Details | 0.3 µM | 0.833333 µM | 3.33333 µM | 6.66667 µM | 10 µM | 30 µM
24 h | 6.59 | 1.92 | 9.11 | 12.3 | 12.3 | 38.3
48 h | 3.88 | 2.55 | 8.4 | 13.7 | 15.4 | 38.9
72 h | 7.75 | 3.09 | 6.53 | 12.2 | 10.8 | 42

CC(=O)c1cc([N+](=O)[O-])c(Sc2ccc(F)cc2F)s1
Details | SARS-CoV-2 infection rate, [10] [%] | cell count, [1] [%] | cell viability, Caco-2 [13] [%] | cell viability, Calu-3 [16] [%] | cell viability, HepG2 [12] [%] | cell viability, U2OS [15] [%] | cell viability, Vero E6 [14] [%] | morphology score, [11]
1 nM | – | – | 98 | 91 | 110 | 95.3 | 108 | –
10 nM | – | – | 96.6 | 95.3 | 105 | 99.3 | 98.8 | –
100 nM | – | – | 103 | 105 | 106 | 95.2 | 101 | –
0.3 µM | 98 | 99 | – | – | – | – | – | 0.06
1000 nM | – | – | 87.4 | 98.6 | 100 | 101 | 98.1 | –
3 µM | 106 | 100 | – | – | – | – | – | -0.18
10 µM | 71 | 81 | – | – | – | – | – | 0.38
10000 nM | – | – | 31.8 | 101 | 58.5 | 80 | 95.6 | –
30 µM | 55 | 58 | – | – | – | – | – | 0.17

Details | drug sensitivity score | relative viability EC50 [µM]
Caco-2 [3] | – | 1.81
Caco-2 [6] | 5.8 | –
Calu-3 [4] | – | > 10
Calu-3 [9] | 0 | –
HepG2 [5] | 2.1 | –
U2OS [8] | 0.5 | –
U2OS [18] | – | > 10
Vero E6 [7] | 0 | –
Vero E6 [17] | – | > 10

drug-induced phospholipidosis [%], A549-ACE2
Details | 0.3 µM | 0.833333 µM | 3.33333 µM | 6.66667 µM | 30 µM
24 h | 3.19 | -2.16 | 10.1 | 11.8 | 19.3
48 h | 2.73 | -1.61 | 2.36 | 16.5 | –
72 h | 0.714 | -1.68 | -2.13 | 11.8 | 23.5

C[C@H](N)Cc1c[nH]cn1 [alpha-methylhistamine-dihydrobromide-(S)-(+)]
Details | SARS-CoV-2 infection rate, [10] [%] | cell count, [1] [%] | cell viability, Caco-2 [13] [%] | cell viability, Calu-3 [16] [%] | cell viability, HepG2 [12] [%] | cell viability, U2OS [15] [%] | cell viability, Vero E6 [14] [%] | morphology score, [11]
1 nM | – | – | 93.5 ± 9.1 | 100 ± 1.1 | 96.1 ± 6.5 | 98.9 | 94.7 | –
10 nM | – | – | 87.9 ± 3 | 105 ± 4 | 103 ± 1.3 | 96.9 | 96.5 | –
100 nM | – | – | 95.2 ± 2.3 | 98.2 ± 1.8 | 93 ± 1.9 | 101 | 92.7 | –
0.3 µM | 96 | 109 | – | – | – | – | – | 0.22
1000 nM | – | – | 98.5 ± 7.1 | 100 ± 4.2 | 100.2 ± 0.28 | 101 | 96.5 | –
3 µM | 101 | 104 | – | – | – | – | – | 0.16
10 µM | 90 | 104 | – | – | – | – | – | 0.28
10000 nM | – | – | 96.6 ± 0.28 | 101 ± 2.8 | 94.8 ± 0.71 | 99.2 | 105 | –
30 µM | 104 | 98 | – | – | – | – | – | -0.09

Details | drug sensitivity score | relative viability EC50 [µM]
Caco-2 [3] | – | > 10
Caco-2 [6] | 0 | –
Calu-3 [4] | – | > 10
Calu-3 [9] | 0 | –
HepG2 [2] | – | > 10
HepG2 [5] | 0 | –
U2OS [8] | 0 | –
U2OS [18] | – | > 10
Vero E6 [7] | 0 | –
Vero E6 [17] | – | > 10

drug-induced phospholipidosis [%], A549-ACE2
Details | 0.3 µM | 0.833333 µM | 3.33333 µM | 6.66667 µM | 10 µM | 30 µM
24 h | 1.4 | -2.09 | -0.4 | -0.13 | -1.06 | 2.88
48 h | 2.76 | -1.54 | -1.15 | -0.6 | 0.05 | 3.3
72 h | 2.88 | -1.77 | -1.17 | -0.807 | 0.33 | 4.01
